Patent US20250140406A1, “CLASSIFYING TUMORS AND PREDICTING RESPONSIVENESS” (Oncocyte Corporation, priority 2022, published 2025)
Read-outs that look alike come from different tables or passages of the source.

Assays:
[1] = tested on: cancer cell lines, DetermaIO classes; experiment: Association of PRISM compound sensitivity with DetermaIO (DTIO) cell line classes; format: cell-based; conditions: association of compound sensitivity with DetermaIO classes; for DTIO Corr test: test data set; for DTIO Corr train: training data set
[2] = tested on: cancer cell lines classified IM, MSL, M; experiment: PRISM screen compound sensitivity correlated with IM, MSL and M subtype of cell lines (101 gene signature); format: cell-based
[3] = subtype (IM, MSL or M) with which compound sensitivity is negatively correlated, training cell set (371 cell lines), 101 gene signature
[4] = subtype (IM, MSL or M) assigned to the compound by negative correlation of PRISM sensitivity with subtype, training cell set (371 cell lines), 101 gene signature
[5] = subtype (IM, MSL or M) with which PRISM compound sensitivity is negatively correlated, training cell set, 101 gene signature

Row | SMILES | DTIO Corr test [1] | DTIO Corr train [1] | further results
1 | COc1ccc(C2=N[C@@H](c3ccc(Cl)cc3)[C@@H](c3ccc(Cl)cc3)N2C(=O)N2CCNC(=O)C2)c(OC(C)C)c1 [A12230535] | 0.1503 | 0.1606 | 
2 | Cc1nccn1CC1CCc2c(c3ccccc3n2C)C1=O (stereo not shown) [A19736161] | −0.1124 | −0.07634 | 
3 | COC(=O)N[C@@H](C)CNc1nccc(-c2cn(C(C)C)nc2-c2cc(Cl)cc(NS(C)(=O)=O)c2F)n1 [A56085258] | 0.1442 | 0.09535 | 
4 | Cc1ccc(NC(=O)c2ccc(CN3CC[C@H](N(C)C)C3)c(C(F)(F)F)c2)cc1Nc1nccc(-c2cncnc2)n1 [A75975749] | 0.1658 | 0.1191 | 
5 | O=C(c1cc(Cc2n[nH]c(=O)c3ccccc23)ccc1F)N1CCN(C(=O)C2CC2)CC1 [K02113016] | 0.06404 | 0.02661 | 
6 | Cc1cc(CN2CCN(c3c(Br)cnc4nc(-c5ccc(N6CCN(C)CC6)cc5)[nH]c34)CC2)no1 [K03289018] | −0.1396 | −0.02552 | 
7 | Cc1ccc(NC(=O)c2cccc(C(C)(C)C#N)c2)cc1Nc1ccc2ncn(C)c(=O)c2c1 [K05804044] | 0.3247 | 0.1908 | 
8 | CC(C)(C)c1nc(-c2cccc(NS(=O)(=O)c3c(F)cccc3F)c2F)c(-c2ccnc(N)n2)s1 [K09951645] | 0.1439 | 0.04313 | 
9 | Cc1cc(C2CCCCC2)n(O)c(=O)c1 [K13044802] | −0.06749 | −0.1574 | 
10 | O=Nc1ccc(O)c2ncccc12 [K13169950] | −0.00012 | 0.09356 | 
11 | N=C(N)c1ccc(OCCCCCOc2ccc(C(=N)N)cc2)cc1 [K13183738] | 0.14 | 0.2157 | 
12 | Cc1occc(=O)c1[O-].Cc1occc(=O)c1[O-].[O]=[V+2] [K16180792] | 0.09031 | 0.1485 | 
13 | CS(=O)(=O)CCNCc1ccc(-c2ccc3ncnc(Nc4ccc(OCc5cccc(F)c5)c(Cl)c4)c3c2)o1 [K19687926] | −0.0302 | −0.08369 | 
14 | COc1cc2nc(N3CCCN(C)CC3)nc(NC3CCN(Cc4ccccc4)CC3)c2cc1OC [K26818574] | 0.2463 | 0.08377 | 
15 | CNC(=O)c1ccccc1Sc1ccc2c(/C=C/c3ccccn3)n[nH]c2c1 [K29905972] | 0.004812 | 0.0816 | 
16 | N#Cc1c(Oc2ccc(F)c(NC(=O)Cc3cccc(C(F)(F)F)c3)c2)ccc2nc(NC(=O)C3CC3)sc12 [K31866293] | 0.2089 | 0.08489 | 
17 | C=CC(=O)Nc1cc(Nc2nccc(-c3cn(C)c4ccccc34)n2)c(OC)cc1N(C)CCN(C)C [K42805893] | 0.0753 | −0.06781 | 
18 | C[C@@H]1COC(Nc2ccc3ncnc(Nc4ccc(OCc5nccs5)c(Cl)c4)c3c2)=N1 [K46386702] | −0.03109 | −0.05992 | 
19 | COc1cc2nccc(Oc3ccc(NC(=O)Nc4ccc(F)cc4F)c(F)c3)c2cc1OC [K47150025] | 0.03732 | 0.02512 | 
20 | NC(=O)c1cccc2cn(-c3ccc([C@@H]4CCCNC4)cc3)nc12 [K54955827] | −0.03477 | 0.03577 | 

Row | SMILES | DTIO Corr test [1] | DTIO Corr train [1] | further results
21 | COc1cc(N2CCC(N3CCN(C)CC3)CC2)ccc1Nc1ncc(Cl)c(Nc2ccccc2P(C)(C)=O)n1 [K56981171] | 0.04024 | −0.1728 | 
22 | OCCn1cc(-c2ccc3c(c2)CC/C3=N\O)c(-c2ccncc2)n1 [K67578145] | 0.1581 | 0.1101 | 
23 | O=c1cc(-c2ccccc2)oc2cc(O)c(O)c(O)c12 [K72327355] | −0.04244 | −0.1442 | 
24 | Nc1nccc2c1ncn2C1C=C(CO)C(O)C1O (stereo not shown) [K77791657] | −0.05245 | −0.1309 | 
25 | CC[C@@]1(O)C(=O)OCc2c1cc1n(c2=O)Cc2cc3c([N+](=O)[O-])cccc3nc2-1 [K79821389] | −0.06417 | −0.1178 | 
26 | C=C1/C(=C\C=C2/CCC[C@]3(C)[C@@H]([C@H](C)OCCC(C)(C)O)CC[C@@H]23)C[C@@H](O)C[C@@H]1O [K81332461] | −0.00506 | −0.07504 | 
27 | Cn1c(Nc2ccc(C(F)(F)F)cc2)nc2cc(Oc3ccnc(-c4ncc(C(F)(F)F)[nH]4)c3)ccc21 [K93123848] | 0.1916 | 0.1011 | 
28 | O=C1[C@H](Cc2ccc(O)cc2)N2C(=O)CCN(C(=O)NCc3ccccc3)[C@H]2CN1Cc1cccc2ccccc12 [K94455792] | 0.1635 | 0.1783 | 
29 | CCCCN1CCC(CNC(=O)c2c3n(c4ccccc24)CCCO3)CC1 [piboserod] |  |  | TNBCType train [2, 3]: MSL
30 | CC[C@@H]1/C=C(\C)C[C@H](C)C[C@H](OC)[C@H]2O[C@@](O)(C(=O)C(=O)N3CCCC[C@H]3C(=O)O[C@H](/C(C)=C/[C@@H]3CC[C@H](Cl)[C@H](OC)C3)[C@H](C)[C@@H](O)CC1=O)[C@H](C)C[C@@H]2OC [pimecrolimus] |  |  | TNBCType train [2, 4]: MSL
31 | O=C(O)C[C@H](O)C[C@H](O)/C=C/c1c(C2CC2)nc2ccccc2c1-c1ccc(F)cc1 [pitavastatin] |  |  | TNBCType train [2, 4]: MSL
32 | Cc1cn2nc([C@@H]3CCCCN3C(=O)c3cc(Cl)ccc3NS(C)(=O)=O)cc2nc1N1CC[C@H](N)C1 [presatovir] |  |  | TNBCType train [2, 5]: MSL
33 | C=Cc1cc(O)cc2nc(-c3ccc(O)c(F)c3)oc12 [prinaberel] |  |  | TNBCType train [2, 4]: MSL
34 | Cc1ccc2c(-c3ccccc3)nc(=O)n(C(C)C)c2c1 [proquazone] |  |  | TNBCType train [2, 5]: MSL
35 | O=C(N[C@H]1CN2CCC1CC2)c1cnc2ccsc2c1O [pumosetrag] |  |  | TNBCType train [2, 5]: MSL
36 | C[C@@H](c1nc(-c2ccc(C#N)cc2)cs1)[C@](O)(Cn1cncn1)c1ccc(F)cc1F [ravuconazole] |  |  | TNBCType train [2, 3]: MSL
37 | C[C@]12CC[C@H](O)C[C@H]1CC[C@@H]1[C@@H]2CC[C@]2(C)[C@@H](c3ccc(=O)oc3)C[C@H]3O[C@]132 [resibufogenin] |  |  | TNBCType train [2, 5]: MSL; TNBCType test ([2]; subtype (IM, MSL, M) with which compound sensitivity correlates, test set): MSL; TNBCType train ([2]; subtype (IM, MSL, M) with which compound sensitivity correlates, training set): MSL
38 | C[C@H]1CNCCCN1S(=O)(=O)c1cccc2cncc(F)c12 [ripasudil] |  |  | TNBCType train [2, 5]: MSL
39 | CCn1nc(C)c2c1C(c1ccccc1)=NCC(=O)N2 [ripazepam] |  |  | TNBCType train [2, 4]: MSL
40 | Cc1nc2n(c(=O)c1CCN1CCC(c3noc4cc(F)ccc34)CC1)CCCC2 [risperidone] |  |  | TNBCType train [2]: MSL

Row | SMILES | DTIO Corr test [1] | DTIO Corr train [1] | further results
41 | C=C[C@](C)(O)CC[C@@H]1[C@@]2(C)CCCC(C)(C)[C@@H]2CC[C@@]1(C)O [sclareol] |  |  | TNBCType train [2, 3]: MSL
42 | CC(C)N(CCCCOCC(=O)NS(C)(=O)=O)c1cnc(-c2ccccc2)c(-c2ccccc2)n1 [selexipag] |  |  | TNBCType train [2, 5]: MSL
43 | CC[C@H]1OC(=O)[C@@](C)(F)C(=O)[C@H](C)[C@@H](O[C@@H]2O[C@H](C)C[C@H](N(C)C)[C@H]2O)[C@](C)(OC)C[C@@H](C)C(=O)[C@H](C)[C@H]2N(CCCCn3cc(-c4cccc(N)c4)nn3)C(=O)O[C@]12C [solithromycin] |  |  | TNBCType train [2, 5]: MSL
44 | O=C1C=CC[C@@H]2[C@H]3CCCN4CCC[C@@H](CN12)[C@@H]34 [sophocarpine] |  |  | TNBCType train [2, 4]: MSL
45 | Nc1ccc(S(N)(=O)=O)cc1 [sulfanilamide] |  |  | TNBCType train [2, 3]: MSL
46 | CC(=O)N1N=C(c2ccc(N)cc2)c2cc3c(cc2C[C@H]1C)OCO3 [talampanel] |  |  | TNBCType train [2, 4]: MSL
47 | COc1ccc2[nH]c([S+]([O-])Cc3ncc(C)c(OC)c3C)nc2n1 (stereo not shown) [tenatoprazole] |  |  | TNBCType train [2, 3]: MSL
48 | CN(C)C(=S)SC(=S)N(C)C [tetramethylthiuram-monosulfide] |  |  | TNBCType train [2, 5]: MSL
49 | O=C(Cn1c(=O)sc2ccc(Cl)cc21)N1CCN(CCO)CC1 [tiaramide] |  |  | TNBCType train [2, 5]: MSL
50 | CCCSc1nc(N[C@@H]2C[C@H]2c2ccc(F)c(F)c2)c2nnn([C@@H]3C[C@H](OCCO)[C@@H](O)[C@H]3O)c2n1 [ticagrelor] |  |  | TNBCType train [2, 5]: MSL
51 | N#Cc1cc(-c2n[nH]c(-c3ccncc3)n2)ccn1 [topiroxostat] |  |  | TNBCType train [2, 4]: MSL
52 | C[C@]12CC[C@H]3[C@@H](CC[C@@]45O[C@@H]4C(O)=C(C#N)C[C@]35C)[C@@H]1CC[C@@H]2O [trilostane] |  |  | TNBCType train [2, 3]: MSL
53 | COc1cc2c3cc1Oc1cc(ccc1O)C[C@@H]1c4c(cc(OC)c(O)c4Oc4ccc(cc4)C[C@@H]3N(C)CC2)CC[N+]1(C)C [tubocurarine] |  |  | TNBCType train ([2]; subtype (IM, MSL or M) the PRISM compound sensitivity is associated with, training cell set (371 cell lines), 101 gene signature): MSL
54 | CC(C)(C)c1ccc(S(=O)(=O)Nc2ccc(Cl)cc2C(=O)c2cc[n+]([O-])cc2)cc1 [vercirnon] |  |  | TNBCType train [2, 5]: MSL
55 | COc1ccc(N(C)c2nc(C)nc3ccccc23)cc1 [verubulin] |  |  | TNBCType train [2, 5]: MSL
56 | CC[C@]1(O)C[C@@H]2CN(CCc3c([nH]c4ccccc34)[C@@](C(=O)OC)(c3cc4c(cc3OC)N(C)[C@H]3[C@@](O)(C(=O)OC)[C@H](OC(C)=O)[C@]5(CC)C=CCN6CC[C@]43[C@@H]65)C2)C1 [vinblastine] |  |  | TNBCType train [2, 3]: MSL
57 | CC[C@]1(O)C[C@@H]2CN(CCc3c([nH]c4ccccc34)[C@@](C(=O)OC)(c3cc4c(cc3OC)N(C)[C@H]3[C@@](O)(C(N)=O)[C@H](O)[C@]5(CC)C=CCN6CC[C@]43[C@@H]65)C2)C1 [vindesine] |  |  | TNBCType train [2, 4]: MSL
58 | CC(c1cc2ccccc2s1)N(O)C(N)=O (stereo not shown) [zileuton] |  |  | TNBCType train [2, 3]: MSL
